From PubChem BioAssay (NCI)
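Each compound was tested at five concentrations against cells in 96-well plates for 48 hours. TGI: concentration producing complete growth inhibition.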

Legend:
Test in all cases: growth of human tumour cells (NCI), 48 h
[1] = system: SK-OV-3 ovarian
[2] = system: LOX IMVI melanoma
[3] = system: U251 CNS
[4] = system: SN12C renal
[5] = system: KM12 colon
[6] = system: SF-539 CNS
[7] = system: A498 renal
[8] = system: OVCAR-8 ovarian
[9] = system: K-562 leukemia
[10] = system: MOLT-4 leukemia
[11] = system: HOP-92 NSCLC
[12] = system: HT29 colon
[13] = system: HL-60(TB) leukemia
[14] = system: SK-MEL-2 melanoma
[15] = system: ACHN renal
[16] = system: NCI-H460 lung
[17] = system: EKVX NSCLC
[18] = system: SNB-75 CNS
[19] = system: BT-549 breast
[20] = system: NCI/ADR-RES ovarian

SMILES | TGI [1] [µM] | TGI [2] [µM] | TGI [3] [µM] | TGI [4] [µM] | TGI [5] [µM] | TGI [6] [µM] | TGI [7] [µM] | TGI [8] [µM] | TGI [9] [µM] | TGI [10] [µM] | TGI [11] [µM] | TGI [12] [µM] | TGI [13] [µM] | TGI [14] [µM] | TGI [15] [µM] | TGI [16] [µM] | TGI [17] [µM] | TGI [18] [µM] | TGI [19] [µM] | TGI [20] [µM]
O=C(Nc1ccc(Cl)cc1)C(=O)C(C(=O)c1ccccc1-c1ccccc1)C1OC(=O)c2ccccc21 (stereo unspecified) | 64.3 | 36 | 27.8 | 62.4 | 39.4 | 58.4 | 38.7 | 29.3 | > 100 | > 100 | 65.6 | 58.6 | 53.5 | 55.5 | 92.4 | 40.1 | 37.9 | 93.3 | – | –
Nc1nc(N)c2cc(Sc3ccc4nc(N)nc(N)c4c3)ccc2n1 | > 100 | > 100 | > 100 | > 100 | > 100 | > 100 | > 100 | > 100 | > 100 | > 100 | > 100 | > 100 | > 100 | > 100 | > 100 | > 100 | > 100 | > 100 | > 100 | > 100
COC(=O)C(Cc1cn(C(C)=O)c2ccccc12)P(=O)(OC)OC (stereo unspecified) | – | – | > 100 | > 100 | > 100 | > 100 | > 100 | > 100 | > 100 | – | > 100 | > 100 | > 100 | – | > 100 | > 100 | – | > 100 | > 100 | > 100
C/C1=C/C(C)CC(C)OC(=O)C(C)NC(=O)C(Cc2ccc(O)c(I)c2)N(C)C(=O)CNC(=O)C(C)C1 (stereo unspecified) | 2.16 | < 0.01 | 0.0707 | > 100 | > 100 | 4.94 | < 0.0134 | > 100 | – | > 52.7 | 0.0654 | > 100 | < 0.01 | 10.2 | – | > 59.7 | > 21.9 | < 0.0141 | 0.322 | > 77.3
